The subject of one data set is PRKG2. The following applies: previous activation data (Campbell 2017; Vaandrager 1997; Pohler 1995); cited from earlier work.
For data set [1] the following is noted: pH 9. On the procedure:
To make hydrophobic CNP salts, including CNP variants, CNP-acetate is placed into water or a buffer. In a first experiment, a stock solution comprising CNP at 20 mg/mL in water was prepared. […] Disodium pamoic acid, oleic acid, or sodium docusate were placed in a buffer at a concentration that is in a molar excess to the number of oppositely charged groups on CNP, in this instance a 12 molar excess of counterion to CNP. CNP has 6 positively charged groups at pH 7, and this is a two-fold excess over the number of positively charged groups.

The conditions of data set [2]: cited from earlier work.
Data set [3] deals with mouse model of Cardiofaciocutaneous syndrome using a Braf mutation (p.Q241R). The following applies: in vivo; cited from earlier work.
For data set [4], the system named is mice deficient in Nf1 in type II collagen producing cells. The following applies: daily injections; cited from earlier work.
Another data set concerns the target T1, NPR2 (Rattus norvegicus, UniProt P16067).
T1 construct: endogenous in cells; host or cells: RCS (rat chondrosarcoma) cells, wild-type and NPR2+/- clones
T1 sequence (P16067 17-1047): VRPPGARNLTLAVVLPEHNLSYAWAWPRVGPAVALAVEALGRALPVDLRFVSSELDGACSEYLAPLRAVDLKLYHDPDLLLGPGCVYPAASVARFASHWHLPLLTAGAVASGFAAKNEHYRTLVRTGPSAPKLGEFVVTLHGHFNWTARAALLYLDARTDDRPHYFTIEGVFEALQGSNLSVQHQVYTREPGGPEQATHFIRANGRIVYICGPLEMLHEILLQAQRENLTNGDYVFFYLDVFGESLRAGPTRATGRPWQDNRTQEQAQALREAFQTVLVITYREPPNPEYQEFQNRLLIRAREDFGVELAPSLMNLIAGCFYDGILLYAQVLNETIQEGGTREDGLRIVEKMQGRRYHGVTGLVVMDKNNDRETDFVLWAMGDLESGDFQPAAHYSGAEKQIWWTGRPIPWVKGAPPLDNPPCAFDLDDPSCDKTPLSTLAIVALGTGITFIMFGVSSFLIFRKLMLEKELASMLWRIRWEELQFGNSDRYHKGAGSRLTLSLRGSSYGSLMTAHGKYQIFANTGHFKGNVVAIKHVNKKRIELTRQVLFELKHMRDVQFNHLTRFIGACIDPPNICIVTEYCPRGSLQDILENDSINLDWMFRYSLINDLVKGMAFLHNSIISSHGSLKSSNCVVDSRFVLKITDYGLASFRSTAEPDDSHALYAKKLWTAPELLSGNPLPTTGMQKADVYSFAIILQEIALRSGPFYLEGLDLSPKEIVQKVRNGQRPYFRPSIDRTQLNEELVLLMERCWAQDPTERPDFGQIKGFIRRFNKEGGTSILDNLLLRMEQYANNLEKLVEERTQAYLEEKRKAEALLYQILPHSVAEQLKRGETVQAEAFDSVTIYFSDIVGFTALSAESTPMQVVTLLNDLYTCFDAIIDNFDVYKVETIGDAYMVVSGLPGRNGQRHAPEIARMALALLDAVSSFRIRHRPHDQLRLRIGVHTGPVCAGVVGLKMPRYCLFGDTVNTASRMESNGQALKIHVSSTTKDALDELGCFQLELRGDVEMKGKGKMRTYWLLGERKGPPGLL
The data set is described as follows: cGMP stimulation assay (CatchPoint Cyclic-GMP Fluorescent Assay) in NPR2 mutant RCS cells. The class given is cell-based. On the procedure: To determine the effects of CNP on subjects with short stature resulting from NPR2 mutations, cellular models of NPR2 mutations were developed. Exemplary NPR2 mutations analyzed are set out in FIG. 5. Rat chondrosarcoma (RCS) cells having either a knockout of, or heterozygous loss of function mutations in, the NPR2 gene were made by RNP transfection into RCS cells using 125 ng NPR2 variants or wild-type NPR2 plasmid DNA transfected into RCS or HEK293 cells. Single cell clones were seeded and genotyped by Sanger sequencing. Cell models are able to reproduce published cGMP phenotypes of the different mutations.
The NPR2 clones were created by creating insertions and deletions in the first exon of NPR2 in RCS cells. The sequence of the first exon in NPR2 was confirmed by next-generation sequencing and is set out in FIG. 4. NPR2 mutant cells were tested for activity in response to CNP administration by a cGMP stimulation assay using a CatchPoint Cyclic-GMP Fluorescent Assay after treatment with 6 nM of Pro-Gly CNP37. Briefly, NIH3T3 cells (ATCC, CRL-1658) and NPR-transfected HEK293 cells were seeded at 60,000 cells/well in a 96-well plate (96-well black imaging plates, Grenier, #655090). RCS (rat chondrosarcoma) cells were seeded at 40,000 cells/well. Culture media was as follows: NIH3T3 culture media: DMEM high glucose, pyruvate (Thermo, 11995-073)+10% FBS+1× Pen Strep (abbrev P/S, Thermo, cat #15140122). NIH3T3 was the control system for the cGMP assay HEK293 culture media: EMEM+10% FBS+1×P/S+1×GMAX. RCS culture media: DMEM+10% FBS+1× Pen Strep. Serum free NIH3T3 media: DMEM+1×P/S for treatment of cells with IBMX (CAS 28822-58-4); Serum free NIH3T3 media with BSA: DMEM+1×P/S+0.5 mg/mL BSA (Thermo, A9418-100G) for treatment of cells with CNP.
Cells were incubated for 24 hours at 37° C., 5% CO2. For cells to be treated with CNP variants, plates were pre-treated with IBMX (Enzo life sciences, 89161-340, 1 g) 15 minutes prior to use. IBMX is a potent, non-specific inhibitor of phosphodiesterases. An 800 mM stock solution of IBMX is diluted in IBMX dilution media (serum-free media (DMEM+[…] mixed 1:1 with 1×PBS) to a 0.75 mM working stock.
For cell treatment, cells were removed from the incubator, growth media was removed from cells and cells treated with IBMX. 80 μL 0.75 mM IBMX was added to each well and cells returned to 37° C. incubator for 15 minutes. […]
The cGMP assay was carried out using a cGMP calibrator, rabbit anti-cGMP antibody and HRP-cGMP prepared as according to manufacturer's protocol. 40 μL of calibrator was added to wells of an anti-cGMP antibody coated plated, and 40 μL of lysate to be analyzed added to the appropriate wells. […] The plate was read for fluorescence intensity on a Spectramax M, or similar instrument, at excitation 530 nm and emission at 590 nm.

For the next data set, the target named is T2, NPR—B (Homo sapiens, UniProt P20594).
T2 sequence (P20594 23-1047): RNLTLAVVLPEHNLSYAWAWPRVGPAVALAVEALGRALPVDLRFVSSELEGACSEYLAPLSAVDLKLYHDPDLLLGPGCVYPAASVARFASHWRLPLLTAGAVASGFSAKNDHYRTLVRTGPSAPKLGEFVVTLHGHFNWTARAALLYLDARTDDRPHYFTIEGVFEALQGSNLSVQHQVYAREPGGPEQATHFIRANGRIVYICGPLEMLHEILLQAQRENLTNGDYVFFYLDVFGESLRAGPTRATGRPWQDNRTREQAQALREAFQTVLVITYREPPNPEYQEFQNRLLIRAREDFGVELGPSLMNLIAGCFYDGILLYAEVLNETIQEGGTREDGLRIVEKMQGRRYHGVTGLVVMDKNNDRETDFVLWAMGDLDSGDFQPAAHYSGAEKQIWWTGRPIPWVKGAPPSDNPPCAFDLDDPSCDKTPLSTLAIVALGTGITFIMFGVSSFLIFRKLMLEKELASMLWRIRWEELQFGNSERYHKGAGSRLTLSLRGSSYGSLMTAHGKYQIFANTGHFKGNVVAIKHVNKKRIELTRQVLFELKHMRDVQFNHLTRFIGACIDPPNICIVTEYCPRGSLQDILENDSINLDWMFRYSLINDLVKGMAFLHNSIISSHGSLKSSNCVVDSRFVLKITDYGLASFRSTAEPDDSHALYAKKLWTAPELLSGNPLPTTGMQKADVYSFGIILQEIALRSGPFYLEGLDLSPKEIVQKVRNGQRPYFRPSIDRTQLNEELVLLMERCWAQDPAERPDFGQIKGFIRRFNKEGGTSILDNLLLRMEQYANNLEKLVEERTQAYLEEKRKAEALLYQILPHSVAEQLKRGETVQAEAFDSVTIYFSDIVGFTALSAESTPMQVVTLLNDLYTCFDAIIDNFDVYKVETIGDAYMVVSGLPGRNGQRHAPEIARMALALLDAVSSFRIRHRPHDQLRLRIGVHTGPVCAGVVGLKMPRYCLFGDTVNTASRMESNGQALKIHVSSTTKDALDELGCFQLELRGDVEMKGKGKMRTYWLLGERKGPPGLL
The note with it: cited from earlier work.

Where no end group is shown, it is not given here. A value given as a limit tells only on which side of the number the result lay.

Usually EC50 stands for the concentration giving half of the maximal effect. Consider `Nc1nc2c(ncn2[C@@H]2O[C@@H]3COP(=O)(O)O[C@H]3[C@H]2O)c(=O)[nH]1` [cGMP, guanosine 3′,5′ cyclic monophosphate], for which the EC50 in the data set on PRKG2 is 40 to 360 nM.

Turning to `O=C(O)c1cc2ccccc2c(Cc2c([O-])c(C(=O)O)cc3ccccc23)c1[O-].[Na+].[Na+]` [disodium pamoic acid], the solubility of counterion result in data set [1] is given as “soluble”.

For the compound `CCCCCCCC/C=C\CCCCCCCC(=O)O` [oleic acid], the pKa in data set [2] is 4-5. Moreover, the solubility of counterion result in data set [1] was “soluble”. In the case of `CCCCC(CC)COC(=O)CC(C(=O)OCC(CC)CCCC)S(=O)(=O)[O-].[Na+]` (centres unmarked) [sodium docusate], the solubility of counterion result in data set [1] is on record as “soluble”. As for “CNP: C-type natriuretic peptide; in the cGMP assay cells were treated with Pro-Gly CNP37 (PGQEHPNARKYKGANKKGLSKGCFGLKLDRIGSMSGLGC; not fully specified (N-terminus, C-terminus); ends and bridges not checked)”, the body length result in data set [3] is reported as “increases in body length”. In data set [4], the ERK phosphorylation entry is listed as “decreased ERK phosphorylation” and the short stature entry is “corrected the short stature”. For the same compound, the “rescue of NPR2 signaling” value with NPR2 (cell model of NPR2 haploinsufficiency, exogenous CNP) is recorded as “dose-dependent rescue of NPR2 signaling”. Moreover, in the data set with NPR2 (heterozygous NPR2 knockout cells), the “CNP dose able to achieve an intracellular cGMP concentration exceeding the EC50 range for PRKG2 activation” value is > 0.163 nM. Also, in the data set with NPR2 (wild-type cells), the “CNP dose able to achieve the same cGMP concentration” value was 0.040 nM.

As to “DLRVDTKSRAAWARLLQEHPNARKYKGANKKGLSKGCFGLKLDRIGSMSGLGC [CNP-53]”, in the data set with NPR—B, the “binding to NPR—B” value was “bind similarly”.

For the compound GLSKGCFGLKLDRIGSMSGLGC [CNP-22], the “binding to NPR—B” value with NPR—B is on record as “bind similarly”. “PGQEHPNARKYKGANKKGLSKGCFGLKLDRIGSMSGLGC (not fully specified (N-terminus, C-terminus); cysteine pairing not given here) [Pro-Gly-CNP37, CNP variant]”: the cGMP readout entry in the data set with NPR2 (NPR2+/− rat chondrosarcoma cell model, exogenous peptide (FIG. 3)) is “rescues cGMP readout”.

The record behind these values is patent publication US20220280647A1, “Hydrophobic Peptide Salts for Extended Release Compositions” (BIOMARIN PHARMACEUTICAL INC., priority 2019, published 2022).
